Assay results published in patent publication US7659289B2, “Hydroxyethylene-based β-secretase inhibitors and use thereof” (CoMentis, Inc., priority 2004, dated 2010).

Columns and labels:
Aβ production = experiment: Cellular Aβ IC50 determination (Aβ40 sandwich ELISA); type: cell-based; details: Cricetulus griseus; Aβ40, Chinese hamster ovary cells over-expressing human APP695 with London and Swedish mutations, 24 h incubation
Description: The potency of compounds against memapsin 2 activity was determined in a cellular assay of Aβ production. […] Chinese hamster ovary cells that over-express human APP695 with the London and Swedish mutations were seeded in multi-well plates at 10% confluency. Compounds were dissolved in DMSO to concentrations near 1 mM, and diluted into culture media to a final concentration near 4 μM (final 0.4% DMSO). Compounds were diluted serially and applied to cells in multi-well plates 48 h after seeding. Incubation was continued in 5% CO2 at 37 degrees C. for 24 h. Aliquots were removed and assayed for Aβ40 content using a sandwich ELISA (BioSource International). Amount of Aβ40 over the range of concentration of compounds, relative to control incubations, were fit to a 4-parameter IC50 model.

memapsin 2 = memapsin 2 (Homo sapiens, UniProt P56817); experiment: Inhibition of memapsin 2 beta-secretase activity toward fluorogenic substrate FS-2; type: biochemical; details: pH 4, 37° C., 20 minutes pre-incubation, fluorogenic substrate FS-2, tight-binding model; read-out: M2 Ki
Sequence of memapsin 2 (P56817 46-501): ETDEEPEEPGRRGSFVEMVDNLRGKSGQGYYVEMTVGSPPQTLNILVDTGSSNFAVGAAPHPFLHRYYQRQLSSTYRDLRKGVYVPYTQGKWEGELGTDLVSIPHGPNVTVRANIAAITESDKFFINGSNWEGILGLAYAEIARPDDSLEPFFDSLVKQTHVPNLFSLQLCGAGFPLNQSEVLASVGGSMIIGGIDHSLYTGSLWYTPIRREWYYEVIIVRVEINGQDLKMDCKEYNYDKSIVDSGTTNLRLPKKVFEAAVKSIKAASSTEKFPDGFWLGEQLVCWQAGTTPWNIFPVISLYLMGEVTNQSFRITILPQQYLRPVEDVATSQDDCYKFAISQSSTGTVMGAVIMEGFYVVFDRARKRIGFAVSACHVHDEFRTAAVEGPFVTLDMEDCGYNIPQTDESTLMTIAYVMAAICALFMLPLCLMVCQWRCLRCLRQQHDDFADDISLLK

Cathepsin D = Cathepsin D (Homo sapiens, UniProt P07339); experiment: Inhibition of cathepsin D activity (MALDI-TOF, substrate peptide […]); type: biochemical; details: pH 4.1, 37 degrees C., read-out: Cath D Ki
Sequence of Cathepsin D (P07339 65-412, species assumed): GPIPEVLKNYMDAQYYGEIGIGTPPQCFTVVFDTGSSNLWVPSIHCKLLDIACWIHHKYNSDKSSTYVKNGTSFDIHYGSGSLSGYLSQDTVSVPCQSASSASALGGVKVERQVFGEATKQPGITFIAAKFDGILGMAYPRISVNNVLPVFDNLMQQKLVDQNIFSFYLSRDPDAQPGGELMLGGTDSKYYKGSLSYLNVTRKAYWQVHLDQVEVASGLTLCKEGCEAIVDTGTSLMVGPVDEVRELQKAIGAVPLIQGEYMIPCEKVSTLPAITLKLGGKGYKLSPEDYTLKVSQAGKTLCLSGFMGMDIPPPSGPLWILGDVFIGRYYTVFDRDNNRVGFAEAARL

Compound | IC50 (Aβ production) [µM] | Ki (memapsin 2) [µM] | Ki (Cathepsin D) [µM]
CCC(Cn1nc(C)cc1C)C(=O)N[C@@H](CNC(=O)OCCF)C(=O)N[C@@H](CC(C)C)[C@@H](O)C[C@@H](C)C(=O)N[C@H](C(=O)NCC(C)C)C(C)C (stereo partly drawn) [2-fluoroethyl (2S)-2-(2-((3,5-dimethyl-1H-pyrazol-1-yl)methyl)butanamido)-3-((4S,5S,7R)-5-hydroxy-8-((S)-1-(isobutylamino)-3-methyl-1-oxobutan-2-ylamino)-2,7-dimethyl-8-oxooctan-4-ylamino)-3-oxopropylcarbamate] | 6 to 100 | < 0.1 | < 0.1
COCCOC(=O)NC[C@H](NC(=O)[C@@H](C)Cc1nc(C)cs1)C(=O)N[C@@H](CC(C)C)[C@@H](O)C[C@@H](C)C(=O)N[C@H](C(=O)NCC(C)C)C(C)C [2-methoxyethyl (S)-3-((4S,5S,7R)-5-hydroxy-8-((S)-1-(isobutylamino)-3-methyl-1-oxobutan-2-ylamino)-2,7-dimethyl-8-oxooctan-4-ylamino)-2-((S)-2-methyl-3-(4-methylthiazol-2-yl)propanamido)-3-oxopropylcarbamate] | < 6 | < 0.1 | < 0.1
Cc1csc(C[C@H](C)C(=O)N[C@@H](CNS(C)(=O)=O)C(=O)N[C@@H](CC(C)C)[C@@H](O)C[C@@H](C)C(=O)N[C@H](C(=O)NCC(C)C)C(C)C)n1 [(2R,4S,5S)-4-hdroxy-N-((S)-1-(isobutylamino)-3-methyl-1-oxobutan-2-yl)-2,7-dimethyl-5-((S)-2-((S)-2-methyl-3-(4-methylthiazol-2-yl)propanamido)-3-(methylsulfonamido)propanamido)octanamide] | < 6 | < 0.1 | < 0.1
Cc1csc(C[C@H](C)C(=O)N[C@@H](CN(C)S(C)(=O)=O)C(=O)N[C@@H](CC(C)C)[C@@H](O)C[C@@H](C)C(=O)N[C@H](C(=O)NCC(C)C)C(C)C)n1 [(2R,4S,5S)-4-hydroxy-N-((S)-1-(isobutylamino)-3-methyl-1-oxobutan-2-yl)-2,7-dimethyl-5-((S)-2-((S)-2-methyl-3-(4-methylthiazol-2-yl)propanamido)-3-(N-methylmethylsulfonamido)propanamido)octanamide] | 6 to 100 | 0.1 to 0.6 | –
CC[C@@H](Cc1nc(C)cs1)C(=O)N[C@@H](CN(C)OC)C(=O)N[C@@H](CC(C)C)[C@@H](O)C[C@@H](C)C(=O)N[C@H](C(=O)NCC(C)C)C(C)C [(2R,4S,5S)-4-hydroxy-N-((S)-1-(isobutylamino)-3-methyl-1-oxobutan-2-yl)-5-((S)-3-(methoxy(methyl)amino)-2-((S)-2-((4-methylthiazol-2-yl)methyl)butanamido)propanamido)-2,7-dimethyloctanamide] | > 100 | 0.1 to 0.6 | –
CC(=O)NC[C@H](NC(=O)[C@@H](C)Cc1nc(C)cs1)C(=O)N[C@@H](CC(C)C)[C@@H](O)C[C@@H](C)C(=O)N[C@H](C(=O)NCC(C)C)C(C)C [(2R,4S,5S)-5-((S)-3-acetamido-2-((S)-2-methyl-3-(4-methylthiazol-2-yl)propanamido)propanamido)-4-hydroxy-N-((S)-1-(isobutylamino)-3-methyl-1-oxobutan-2-yl)-2,7-dimethyloctanamide] | 6 to 100 | < 0.1 | 0.1 to 0.6
Cc1csc(C[C@H](C)C(=O)N[C@@H](CN)C(=O)N[C@@H](CC(C)C)[C@@H](O)C[C@@H](C)C(=O)N[C@H](C(=O)NCC(C)C)C(C)C)n1 [(2R,4S,5S)-5-((S)-3-amino-2-((S)-2-methyl-3-(4-methylthiazol-2-yl)propanamido)propanamido)-4-hydroxy-N-((S)-1-(isobutylamino)-3-methyl-1-oxobutan-2-yl)-2,7-dimethyloctanamide] | 6 to 100 | 0.1 to 0.6 | 0.1 to 0.6
Cc1csc(COC(=O)NC[C@H](NC(=O)[C@@H](C)Cc2nc(C)cs2)C(=O)N[C@@H](CC(C)C)[C@@H](O)C[C@@H](C)C(=O)N[C@H](C(=O)NCC(C)C)C(C)C)n1 [(4-methylthiazol-2-yl)methyl (S)-3-((4S,5S,7R)-5-hydroxy-8-((S)-1-(isobutylamino)-3-methyl-1-oxobutan-2-ylamino)-2,7-dimethyl-8-oxooctan-4-ylamino)-2-((S)-2-methyl-3-(4-methylthiazol-2-yl)propanamido)-3-oxopropylcarbamate] | < 6 | < 0.1 | < 0.1

Next, values leading:

IC50 (Aβ production) [µM] | Ki (memapsin 2) [µM] | Ki (Cathepsin D) [µM] | Compound
< 6 | < 0.1 | < 0.1 | Cc1csc(C[C@H](C)C(=O)N[C@@H](CNC(=O)O[C@@H]2CCOC2)C(=O)N[C@@H](CC(C)C)[C@@H](O)C[C@@H](C)C(=O)N[C@H](C(=O)NCC(C)C)C(C)C)n1 [(R)-tetrahydrofuran-3-yl (S)-3-((4S,5S,7R)-5-hydroxy-8-((S)-1-(isobutylamino)-3-methyl-1-oxobutan-2-ylamino)2,7-dimethyl-8-oxooctan-4-ylamino)-2-((S)-2-methyl-3-(4-methylthiazol-2-yl)propanamido)-3-oxopropylcarbamate]
– | < 0.1 | < 0.1 | Cc1nc(COC(=O)N[C@@H](CC(=O)OCc2ccccc2)C(=O)N[C@@H](CC(C)C)[C@@H](O)C[C@@H](C)C(=O)N[C@H](C(=O)NCC(C)C)C(C)C)c(C)o1 [(S)-benzyl 3-(((2,5-dimethyloxazol-4-yl)methoxy)carbonylamino)-4-((4S,5S,7R)-5-hydroxy-8-((S)-1-(isobutylamino)-3-methyl-1-oxobutan-2-ylamino)2,7-dimethyl-8-oxooctan-4-ylamino)-4-oxobutanoate]
– | > 0.6 | 0.1 to 0.6 | CC[C@H](Cn1nc(C)cc1C)C(=O)N[C@@H](CNC(=O)OC(C)(C)C)C(=O)N[C@@H](CC(C)C)[C@@H](O)C[C@@H](C)C(=O)N[C@H](C(=O)NCC(F)(F)F)C(C)C [tert-butyl (S)-2-((R)-2-((3,5-dimethyl-1H-pyrazol-1-yl)methyl)butanamido)-3-((4S,5S,7R)-5-hydroxy-2,7-dimethyl-8-((S)-3-methyl-1-oxo-1-(2,2,2-trifluoroethylamino)butan-2-ylamino)-8-oxooctan-4-ylamino)-3-oxopropylcarbamate]
6 to 100 | < 0.1 | – | CC[C@@H](Cn1nc(C)cc1C)C(=O)N[C@@H](CNC(=O)OC(C)(C)C)C(=O)N[C@@H](CC(C)C)[C@@H](O)C[C@@H](C)C(=O)N[C@H](C(=O)NCc1ccccn1)C(C)C [tert-butyl (S)-2-((S)-2-((3,5-dimethyl-1H-pyrazol-1-yl)methyl)butanamido)-3-((4S,5S,7R)-5-hydroxy-2,7-dimethyl-8-((S)-3-methyl-1-oxo-1-(pyridin-2-ylmethylamino)butan-2-ylamino)-8-oxooctan-4-ylamino)-3-oxopropylcarbamate]
< 6 | < 0.1 | – | CC[C@@H](Cn1nc(C)cc1C)C(=O)N[C@@H](CNC(=O)OC(C)(C)C)C(=O)N[C@@H](CC(C)C)[C@@H](O)C[C@@H](C)C(=O)N[C@H](C(=O)NCc1ccncc1)C(C)C [tert-butyl (S)-2-((S)-2-((3,5-dimethyl-1H-pyrazol-1-yl)methyl)butanamido)-3-((4S,5S,7R)-5-hydroxy-2,7-dimethyl-8-((S)-3-methyl-1-oxo-1-(pyridin-4-ylmethylamino)butan-2-ylamino)-8-oxooctan-4-ylamino)-3-oxopropylcarbamate]
– | 0.1 to 0.6 | < 0.1 | COCO[C@@H](Cn1nc(C)cc1C)C(=O)N[C@@H](CNC(=O)OC(C)(C)C)C(=O)N[C@@H](CC(C)C)[C@@H](O)C[C@@H](C)C(=O)N[C@H](C(=O)NCC(C)C)C(C)C [tert-butyl (S)-2-((S)-3-(3,5-dimethyl-1H-pyrazol-1-yl)-2-(methoxymethoxy)propanamido)-3-((4S,5S,7R)-5-hydroxy-8-((S)-1-(isobutylamino)-3-methyl-1-oxobutan-2-ylamino)-2,7-dimethyl-8-oxooctan-4-ylamino)-3-oxopropylcarbamate]
6 to 100 | < 0.1 | – | Cc1csc(C[C@H](C)C(=O)N[C@@H](CNC(=O)OC(C)(C)C)C(=O)N[C@@H](Cc2cc(F)cc(F)c2)[C@@H](O)C[C@@H](C)C(=O)N[C@H](C(=O)NCC(C)C)C(C)C)n1 [tert-butyl (S)-3-((2S,3S,5R)-1-(3,5-difluorophenyl)-3-hydroxy-6-((S)-1-(isobutylamino)-3-methyl-1-oxobutan-2-ylamino)-5-methyl-6-oxohexan-2-ylamino)-2-((S)-2-methyl-3-(4-methylthiazol-2-yl)propanamido)-3-oxopropylcarbamate]
– | > 0.6 | < 0.1 | COc1ccc(C[C@H](NC(=O)[C@H](CNC(=O)OC(C)(C)C)NC(=O)[C@@H](C)Cc2nc(C)cs2)[C@@H](O)C[C@@H](C)C(=O)N[C@H](C(=O)NCC(C)C)C(C)C)cc1 [tert-butyl (S)-3-((2S,3S,5R)-3-hydroxy-6-((S)-1-(isobutylamino)-3-methyl-1-oxobutan-2-ylamino)-1-(4-methoxyphenyl)-5-methyl-6-oxohexan-2-ylamino)-2-((S)-2-methyl-3-(4-methylthiazol-2-yl)propanamido)-3-oxopropylcarbamate]
– | > 0.6 | > 0.6 | Cc1csc(C[C@H](C)C(=O)N[C@@H](CNC(=O)OC(C)(C)C)C(=O)N[C@@H](CC(C)C)[C@@H](O)C[C@@H](C)C(=O)N[C@H](CS(=O)(=O)CC(C)C)C(C)C)n1 [tert-butyl (S)-3-((4S,5S,7R)-5-hydroxy-8-((S)-1-(isobutylsulfonyl)-3-methylbutan-2-ylamino)-2,7-dimethyl-8-oxooctan-4-ylamino)-2-((S)-2-methyl-3-(4-methylthiazol-2-yl)propanamido)-3-oxopropylcarbamate]
